A short description of this test: Odor detection threshold (ODT). More on the design: unit not given here. The text has this:
Within these defined water-release groups, odorants are then further described based on their experimentally determined odor detection thresholds (ODT) to further characterize the odor impact or olfactive intensity of a citrus and other olfactive types within the herein-described released group of odorants.
Upon their release in headspace, odorants are detected based on their odor detection threshold values. Odor detection thresholds are defined as the lowest concentration of odorants in a selected medium (air or water) to be detected. By including odor values of odorants in the model, one can further improve on the values for predicted performance of once odorants are released from the partition into the air.
Various databases for experimental odor detection threshold values in various partitions such as water and air are available. See Compilation of Odor and Taste Threshold Values Data, American Society for Testing and Materials, F. A. Fazzalari Editor; Booleans Aroma Chemical Information Service (BACIS)).

Molecules are shown by their SMILES.

On to `C=CCOC(=O)CCC1CCCCC1` [ALLYL CYCLOHEXYL PROPIONATE], for which the odt (Table 13) was 31.00.

Turning to `CCCCCCCCCC=O` [ALDEHYDE C10 (DECANAL), DECANAL], where the note is “Table 15”, the odt came out at 6.7. `CC/C=C\CCOC(=O)c1ccccc1O` [CIS-3-HEXENYL SALICYLATE] came in with an odt (Table 13) of 1.90. In the case of `CCCCCCCC=O` [ALDEHYDE C 8 (OCTANAL), OCTANAL], the odt (Table 15) turned out to be 4.6 and the odt (Table 17) is on record as 4.6. For `CCC=C(C)C(O)CCCCC` (centres unmarked) [UNDECAVERTOL, 4-Methyl-3-decen-5-ol], the odt (Table 15) is recorded as 26 and the odt (Table 17) stood at 26. `CCCCCCC#CC(=O)OC` [METHYL OCTINE CARBONATE] displayed an odt (Table 17) of 9.7. As for `CCCCCCCCCCC=CC#N` [TRIDECEN 2 NITRILE], the odt (Table 15) worked out at 6.7. In turn, `CCCCCCCCCCCC#N` [LAURONITRILE] displayed an odt (Table 13) of 5.70.

`C=CC(C)(O)CCC=C(C)CC` (mixture of isomers) [ETHYL LINALOOL]: the odt (Table 17) is given as 120.

These data come from US20080176781A1, “Perfumes for linear citrus release in rinse-off systems” (priority 2007, published 2008).
